Values after ≈ are worked out from the molar mass of the structure shown. Active and inactive are the calls of the source. The calls are words filed in the database; no cut-off is given here.
What was measured:
Erythrocyte [1] = experiment: Anticomplement activity in sheep erythrocytes assessed as concentration required for 50% hemolytic inhibition by classic pathway pretreated for 10 mins with guinea pig serum followed by erythrocyte addition measured after 30 mins by spectrophotometeric method; format: functional, cell-based; conditions: Ovis aries
Erythrocyte [2] = experiment: Anticomplement activity in rabbit erythrocytes assessed as concentration required for 50% hemolytic inhibition by alternative pathway pretreated for 10 mins with normal human serum followed by erythrocyte addition measured after 30 mins by spectrophotometeric method; format: functional, cell-based; conditions: Oryctolagus cuniculus
Erythrocyte [3] = experiment: Anticomplement activity in sheep erythrocytes assessed as inhibition of hemolysis by classical pathway after 30 mins of compound treatment in normal human serum with C4-depleted sera; format: functional, cell-based; conditions: Ovis aries
Erythrocyte [4] = experiment: Anticomplement activity in sheep erythrocytes assessed as inhibition of hemolysis by classical pathway after 30 mins of compound treatment in normal human serum with C3-depleted sera; format: functional, cell-based; conditions: Ovis aries
Erythrocyte [5] = experiment: Anticomplement activity in sheep erythrocytes assessed as inhibition of complete hemolysis by classical pathway after 30 mins of compound treatment in normal human serum; format: functional; conditions: Ovis aries, 0.5 h
Erythrocyte [6] = experiment: Anticomplement activity in sheep erythrocytes assessed as inhibition of hemolysis by classical pathway by measuring hemolysis after 30 mins of compound treatment in normal human serum with C5-depleted sera relative to control; format: functional, Ovis aries
Erythrocyte [7] = experiment: Anticomplement activity in sheep erythrocytes assessed as inhibition of hemolysis by classical pathway by measuring hemolysis after 30 mins of compound treatment in normal human serum with C3-depleted sera relative to control; format: functional, Ovis aries
Erythrocyte [8] = experiment: Anticomplement activity in sheep erythrocytes assessed as inhibition of hemolysis by classical pathway by measuring hemolysis after 30 mins of compound treatment in normal human serum with C9-depleted sera relative to control; format: functional, Ovis aries
Erythrocyte [9] = experiment: Anticomplement activity in sheep erythrocytes assessed as inhibition of hemolysis by classical pathway by measuring hemolysis after 30 mins of compound treatment in normal human serum with C4-depleted sera relative to control; format: functional, Ovis aries
Erythrocyte [10] = experiment: Anticomplement activity in sheep erythrocytes assessed as inhibition of hemolysis by classical pathway after 30 mins of compound treatment in normal human serum with C1q-depleted sera; format: functional, cell-based; conditions: Ovis aries
Erythrocyte [11] = experiment: Anticomplement activity in sheep erythrocytes assessed as inhibition of hemolysis by classical pathway after 30 mins of compound treatment in normal human serum with C2-depleted sera; format: functional, cell-based; conditions: Ovis aries
Erythrocyte [12] = experiment: Anticomplement activity in sheep erythrocytes assessed as inhibition of hemolysis by classical pathway after 30 mins of compound treatment in normal human serum with C5-depleted sera; format: functional, cell-based; conditions: Ovis aries
Erythrocyte [13] = experiment: Anticomplement activity in sheep erythrocytes assessed as inhibition of hemolysis by classical pathway after 30 mins of compound treatment in normal human serum with C9-depleted sera; format: functional, cell-based; conditions: Ovis aries

| SMILES | IC50 (Erythrocyte [1]) | IC50 (Erythrocyte [2]) | further results |
| --- | --- | --- | --- |
| O=C(O)/C=C/c1ccc(O)c(O)c1 [CAFFEIC ACID] | 750 µM | 940 µM |  |
| COc1cc([C@H]2c3cc(O)c(OC)cc3/C(=C/C(=O)NCCc3ccc(O)cc3)[C@H]2C(=O)NCCc2ccc(O)cc2)ccc1O | 390 µM | 420 µM | inhibition (Erythrocyte [3]): Active; inhibition (Erythrocyte [4]): Active; MIC (Erythrocyte [5]): 820 µM (≈ 512 µg/mL) |
| CC(=O)N[C@H]1[C@@H](O[C@H]2[C@H](O)[C@@H](O)[C@H](O[C@H]3[C@H](OS(=O)(=O)O)[C@@H](OS(=O)(=O)O)[C@@H](O[C@H]4[C@H](O)[C@@H](OS(=O)(=O)O)C(O)O[C@H]4C(=O)O)O[C@@H]3CO)O[C@@H]2C(=O)O)O[C@H](COS(=O)(=O)O)[C@@H](O)[C@@H]1O (some centres not stated) | 93 µg/mL | 135 µg/mL |  |
| COc1c(O)cc2c(=O)oc3c(O)c(O)cc4c(=O)oc1c2c34 | 580 µM | 670 µM |  |
| COc1cc([C@@H]2OC(=O)[C@@H]3[C@H]2CO[C@H]3c2ccc(O)c(OC)c2)ccc1O | 880 µM | 1160 µM |  |
| O=C(O)c1cc(O)c(O)c(O)c1 [GALLIC ACID] | 590 µM | 740 µM |  |
| COC(=O)c1cc(O)c(O)c(O)c1 [GALLIC ACID METHYL ESTER] | 840 µM | 1070 µM |  |
| COc1c(O)cc2c(=O)oc3c(OC)c(O)cc4c(=O)oc1c2c34 | 870 µM | 1070 µM |  |
| O=C1CCc2c1oc(=O)c1cc(O)c(O)c(O)c21 | 1250 µM | 1560 µM |  |
| COc1c(O)cc2c(=O)oc3c(OC)c(O[C@@H]4OC[C@@H](O)[C@H](O)[C@H]4O)cc4c(=O)oc1c2c34 | 230 µM | 290 µM |  |
| COc1cc(/C=C(/C(=O)NCCc2ccc(O)cc2)c2cc(OC)c(O)c(OC)c2)ccc1O | 1340 µM | 2800 µM |  |
| COc1cc(/C=C/C(=O)OCCc2ccc(O)cc2)ccc1O | 660 µM | 1010 µM |  |
| COc1cc(/C=C/C(=O)NCCc2ccc(O)cc2)ccc1O [N-TRANS-FERULOYL TYRAMINE] | 880 µM | 1330 µM |  |
| O=C1C[C@@H](c2ccc(O)cc2)[C@]2(O)C(=O)O[C@@H]([C@H](O)CO)[C@H]2O1 | 730 µM | 990 µM | inhibition (INH) (Erythrocyte [6]): <10.6%; inhibition (INH) (Erythrocyte [7]): <10.6%; inhibition (INH) (Erythrocyte [8]): <10.6%; MIC (Erythrocyte [5]): 1760 µM (≈ 571 µg/mL); inhibition (INH) (Erythrocyte [9]): <10.6%; inhibition (Erythrocyte [10]): inactive; inhibition (Erythrocyte [11]): inactive |
| O=C(O)C[C@H](C(=O)O)[C@H]1c2c(cc(O)c(O)c2O)C(=O)O[C@@H]1C(=O)O | 620 µM | 730 µM |  |
| CCOC(=O)[C@H]1OC(=O)c2cc(O)c(O)c(O)c2[C@@H]1[C@H](CC(=O)O)C(=O)O | 460 µM | 550 µM | inhibition (Erythrocyte [3]): Active; inhibition (Erythrocyte [4]): Active; MIC (Erythrocyte [5]): 840 µM (≈ 323 µg/mL); inhibition (Erythrocyte [12]): Active; inhibition (Erythrocyte [10]): inactive; inhibition (Erythrocyte [13]): inactive; inhibition (Erythrocyte [11]): inactive |
| Cc1ccc(C(=O)Nc2ccc(S(=O)(=O)O)c3cc(S(=O)(=O)O)cc(S(=O)(=O)O)c23)cc1NC(=O)c1cccc(NC(=O)Nc2cccc(C(=O)Nc3cc(C(=O)Nc4ccc(S(=O)(=O)O)c5cc(S(=O)(=O)O)cc(S(=O)(=O)O)c45)ccc3C)c2)c1 [SURAMIN] | 120 µM | 180 µM |  |
| CCOC(=O)C1CC(=O)c2oc(=O)c3cc(O)c(O)c(O)c3c21 (configuration not stated) [ETHYLBREVIFOLIN CARBOXYLATE] | 1080 µM | 1360 µM |  |
| COc1c(O)cc2c(=O)oc3c(O)c(O[C@@H]4O[C@@H](C)[C@H](O)[C@@H](O)[C@H]4O)cc4c(=O)oc1c2c34 | 180 µM | 260 µM | inhibition (Erythrocyte [4]): Active; MIC (Erythrocyte [5]): 340 µM (≈ 157 µg/mL); inhibition (Erythrocyte [12]): Active; inhibition (Erythrocyte [10]): Active |
| CCOC(=O)[C@H]1OC(=O)c2cc(O)c(O)c(O)c2[C@@H]1CC(=O)OC | 1450 µM | 1840 µM |  |
| COC(=O)C1CC(=O)c2oc(=O)c3cc(O)c(O)c(O)c3c21 (configuration not stated) [METHYLBREVIFOLIN CARBOXYLATE] | 1040 µM | 1260 µM |  |
| CCOC(=O)[C@@H](CC(=O)O)[C@H]1c2c(cc(O)c(O)c2O)C(=O)O[C@@H]1C(=O)OCC | 770 µM | 870 µM |  |
| CC1(C)OC[C@H]([C@@H]2OC(=O)[C@]3(O)[C@@H]2OC(=O)C[C@H]3c2ccc(O)cc2)O1 | 920 µM | 1170 µM |  |
| COc1cc([C@@H](O)[C@@H]2C(=O)NCCc3ccc(cc3)Oc3ccc(cc3)CCNC(=O)/C=C/c3cc(OC)c(O)c2c3)ccc1O | 520 µM | 720 µM |  |
| CCOC(=O)c1cc(O)c(O)c(O)c1 [ETHYLGALLATE] | 1000 µM | 1240 µM |  |
| CCOC(=O)[C@@H](CC(=O)OC)[C@H]1c2c(cc(O)c(O)c2O)C(=O)O[C@@H]1C(=O)OCC | 1250 µM | 1530 µM |  |
| O=c1oc2c(O)c(O)cc3c(=O)oc4c(O)c(O)cc1c4c23 [ELLAGIC ACID] | 320 µM | 320 µM |  |
| COc1cc2c(=O)oc3c(O)c(OC)cc4c(=O)oc(c1O)c2c34 | 1100 µM | 1310 µM |  |
